The values below come from patent US20240374655A1, “INTESTINAL MICROBIOTA AND GVHD” (Memorial Sloan-Kettering Cancer Center, priority 2014, published 2024).

A short description of data set [1]: Retrospective cohort of 283 allo-HSCT patients treated for neutropenic fever: GVHD-related mortality by antibiotic type. The data set is classed as in vivo, human. Conditions: compared to antibiotics with reduced activity against anaerobes (aztreonam, cefepime). The text has this: (§1) (A) A retrospective cohort was identified of 283 adult patients who received non-T cell depleted allo-HSCT at our center from 1994 to 2013 and received antibiotics for neutropenic fever. Patients were stratified by exposure to antibiotics with significant activity against anaerobes. Outcomes indicated were depicted by Kaplan-Meier plots and curves compared by the logrank test. (B to G) Six representative clinical cases with time courses depicted of fecal microbiota composition and administration of antibiotic treatments during the course of allo-HSCT. […] (H) Change in abundance of Clostridiales in paired fecal samples from patients undergoing allo-HSCT collected prior to and following treatment with the indicated antibiotics.
In one study, subjects analyzed retrospectively for impact of antibiotics on clinical outcomes consisted of 283 adult patients undergoing all-HSCT at Memorial Sloan Kettering Cancer Center (MSKCC) from 1994 to 2013. […]
GVHD was diagnosed clinically, confirmed pathologically by biopsy whenever possible, and classified according to historical consensus criteria as described previously (see Rowlings P A, Przepiorka D, Klein J P, et al. IBMTR Severity Index for grading acute graft-versus host disease: retrospective comparison with Glucksberg grade. Br J Haematol. 1997). […] Disease risk was determined according to the ASBMT RFI 2014 Disease Classification. […]

Data set [2] can be described thus: Antibiotic treatment in MHC-matched minor antigen-mismatched allo-HSCT GVHD model (C57BL/6 into 129S1). The format is in vivo. As to the method: FIGS. 16A-16J Imipenem treatment, compared to aztreonam treatment, suppresses anaerobic commensals and elevates GVHD severity in mice. (A) Flora composition analysis using 16S rRNA sequencing prior to and after treatment with the indicated antibiotics in healthy C57BL/6 mice. Mice were treated with subcutaneous (SC) injections of each antibiotic twice a day for two days (500 mg/kg for pip/tazo and 100 mg/kg for others) and stool samples were collected the following day. Values represent mean±SEM (n=3-4). *, P<0.05; **, P<0.01; ****, P<0.0001. Data are representative of two independent experiments. (B to J) Lethally irradiated 129S1 recipients were transplanted with MHC matched C57BL/6 T-cell depleted bone marrow (TCD-BM) cells and 1×10^6 C57BL/6 T cells. Control mice received TCD-BM only. Recipients were treated with imipenem or aztreonam (100 mg/kg, SC, 3 times a week from day 10 to day 24 following allo-HSCT). (B) Comparison of overall survival, with combined data from three independent experiments (n=15-43). ****, P<0.0001. (C) Mice with GVHD treated with antibiotics were sacrificed on day 21 and GVHD histology scores in target organs were quantified by a blinded pathologist. Data are combined from three independent experiments (n=5-20). *, P<0.05. (D) Stool samples obtained from mice treated with imipenem or aztreonam similarly to those in B were collected on day 21 and analyzed by 16S rRNA gene sequencing, followed by principal coordinate analysis of weighted and normalized UniFrac distances. (E and F) Differential taxonomic abundance between aztreonam treated and imipenem treated recipients was analyzed by (E) linear discriminate analysis coupled with effect size measurements (LEfSe) and (F) by LEfSe projected as a cladogram. […] (I) Stool samples collected from mice with GVHD treated with antibiotics were collected on day 21, and evaluated by metagenomic shotgun sequence analysis, comparison of bacterial species abundance determined by taxonomy. […] (J) Principal component analysis of quantification of sequence reads from KEGG gene orthologs comparing samples from mice treated with aztreonam and imipenem.
(A to G) Lethally irradiated 129S1 recipients were transplanted with C57BL/6 TCD-BM cells with 1×10^6 C57BL/6 T cells. […] (A) Colonic lamina propria-infiltrating leukocytes from recipients were analyzed on day 21 by flow cytometry. […] (C) Lamina propria-infiltrating leukocytes from the colon on day 21 were enriched for CD11b and CD11e simultaneously using a mixture of magnetic beads and IL-23 transcripts were quantified by real time PCR. […] (D) Immunofluorescent staining was used to quantify pSTAT3, CD3, and DAPI positive cells in colonic tissue collected on day 21. […]

Data set [3] can be described thus: Administration of SCFA to mitigate murine GVHD (preliminary experiments). The data set is classed as in vivo, mice. As to conditions: via drinking water (butyrate also via enema); data not shown. As to the method: Preliminary experiments were done to test the impact of administration of SCFA on murine GVHD. […] Sodium acetate (150 mM) will be delivered via the drinking water of mice beginning 2 weeks prior to BMT. Mice will then be irradiated and transplanted with continued supplementation of sodium acetate. Outcomes that will be evaluated in mice include GVHD clinical scores, survival, and day 14 and 28 tissue pathology. Kaplan-Meier curves will display the overall survival for the two groups. In addition, the area under the curve (AUC) will summarize the weekly total GVHD score from the time of infusion to week 13 for each mouse. Mice will be euthanized to evaluate for pathological evidence of GVHD, as well as to quantify and characterize large intestinal Tregs and alloreactive effector T cells by flow cytometry on days 14 and 28.

Data set [4] deals with Clostridiales. The data set can be described thus: Change in Clostridiales abundance in paired stool samples of allo-HSCT patients before and after starting antibiotics. Conditions: before vs after starting the antibiotic; compared to aztreonam. The data set is classed as in vivo, human.
Excerpt: as §1
For each stool specimen, DNA was purified using a phenol-chloroform extraction technique with mechanical disruption (bead-beating) based on a previously described protocol (60). Samples were analyzed using the 454 GS FLX Titanium platform to sequence the V1-V3 region of the bacterial 16S rRNA gene or were alternatively analyzed using the Illumina MiSeq platform to sequence the V4-V5 region of the 16S rRNA gene. Sequence data were compiled and processed using mothur version 1.34 (61), screened and filtered for quality (62). Operational taxonomic units (OTUs) were classified to the species level (63) using a modified form of the Greengenes reference database (64). Principal component analysis was performed upon a weighted and normalized Unifrac (65) distance matrix of OTU abundance in R software. Data from this study has been stored in the NCBI Sequence Read Archive (see url: www.ncbi.nlm.nih.gov/sra).
HSCT patients were on intestinal bacterial composition. In 2009, our center began to prospectively collect weekly stool samples from patients undergoing allo-HSCT. From this specimen bank, we identified paired stool samples collected from patients prior to as well as following initiation of specific antibiotics during the course of allo-HSCT. […]

The conditions of data set [5]: metronidazole added to ciprofloxacin; cited from earlier work.
Data set [6] relates to intestinal microbiota (Clostridiales, Enterococcus). The data set can be described thus: Flora composition (16S rRNA sequencing of stool) after antibiotic treatment of healthy mice. The data set is classed as in vivo, C57BL/6 mice. As to the method: FIGS. 16A-16J Imipenem treatment, compared to aztreonam treatment, suppresses anaerobic commensals and elevates GVHD severity in mice. (A) Flora composition analysis using 16S rRNA sequencing prior to and after treatment with the indicated antibiotics in healthy C57BL/6 mice. Mice were treated with subcutaneous (SC) injections of each antibiotic twice a day for two days (500 mg/kg for pip/tazo and 100 mg/kg for others) and stool samples were collected the following day. Values represent mean±SEM (n=3-4). *, P<0.05; **, P<0.01; ****, P<0.0001. Data are representative of two independent experiments. (B to J) Lethally irradiated 129S1 recipients were transplanted with MHC matched C57BL/6 T-cell depleted bone marrow (TCD-BM) cells and 1×10^6 C57BL/6 T cells. Control mice received TCD-BM only. Recipients were treated with imipenem or aztreonam (100 mg/kg, SC, 3 times a week from day 10 to day 24 following allo-HSCT). (B) Comparison of overall survival, with combined data from three independent experiments (n=15-43). ****, P<0.0001. (C) Mice with GVHD treated with antibiotics were sacrificed on day 21 and GVHD histology scores in target organs were quantified by a blinded pathologist. Data are combined from three independent experiments (n=5-20). *, P<0.05. (D) Stool samples obtained from mice treated with imipenem or aztreonam similarly to those in B were collected on day 21 and analyzed by 16S rRNA gene sequencing, followed by principal coordinate analysis of weighted and normalized UniFrac distances. (E and F) Differential taxonomic abundance between aztreonam treated and imipenem treated recipients was analyzed by (E) linear discriminate analysis coupled with effect size measurements (LEfSe) and (F) by LEfSe projected as a cladogram. Data are representative from more than five independent experiments in D to F. (G and H) Comparisons of bacterial abundance at the phylogenetic levels of (G) order, and (H) genus are shown. Data are combined from 6 independent experiments (n=32-36). ***, P<0.001. (I) Stool samples collected from mice with GVHD treated with antibiotics were collected on day 21, and evaluated by metagenomic shotgun sequence analysis, comparison of bacterial species abundance determined by taxonomy. Numbers 1 through 6 along the x-axis represent the individual subjects. (J) Principal component analysis of quantification of sequence reads from KEGG gene orthologs comparing samples from mice treated with aztreonam and imipenem.
To further explore causality and mechanisms of the effects of antibiotics with anaerobic activity on GVHD, we turned to experiments in mice. […] Mice were treated by subcutaneous (SC) injections of each antibiotic twice a day for two days (500 mg/kg for pip/tazo and 100 mg/kg for others) and stool samples were collected, followed by 16S rRNA gene amplification and sequence analysis.

Setting [7] is: 100 mg/kg SC twice a day for two days.

“Also recorded” adds a separate entry of the source.

Turning to `C[C@@H](O)[C@H]1C(=O)N2C(C(=O)O)=C(SCCN=CN)C[C@H]12` [imipenem, imipenem-cilastatin], in data set [1], the GVHD-related mortality result is “increased GVHD-related mortality”. For the same compound, the “Mortality / overall survival” value in data set [2] (100 mg/kg SC 3 times a week from day 10, compared to aztreonam, within 2 weeks of starting treatment) was “significantly increased mortality; also recorded: aggravated mortality”. Also, in data set [2] (mouse, in vivo), the “Bacteria past the colonic epithelial barrier” value is on record as “dissemination of bacteria past the colonic epithelial barrier”; the “GVHD pathology in skin, liver and small intestine” value is “no significant differences”.

As for `CC(=O)O` [acetate], the “Benefit on murine GVHD” value in data set [3] is given as “notable benefit”.

On to `Cc1ncc([N+](=O)[O-])n1CCO` [metronidazole], for which the “Change in Clostridiales abundance in stool of patients” value in data set [4] was “significantly lower abundances of Clostridiales”. In data set [5], the “Acute GVHD” value was “significant reduction in acute GVHD”. In data set [6] (setting [7]), the “Abundance of Clostridiales in stool” value is given as “significantly reduced” and the “Abundance of Enterococcus in stool” value is “increased”.

With piperacillin-tazobactam [pip/tazo], in data set [1], the GVHD-related mortality entry is given as “increased GVHD-related mortality”. For the same compound, in data set [4], the “Change in Clostridiales abundance in stool of patients” value was “significantly lower abundances of Clostridiales; also recorded: more severe loss”. Further, the “Amplifiable bacterial DNA in stool” value in data set [6] (500 mg/kg SC twice a day for two days) is reported as “no amplifiable bacterial DNA”.
